Measurements from PubChem BioAssay AID1963840 (Molecular Pharmacology Branch, DTP, NCI, 2024).
Several values for one entry are separate records, joined by “and”; a condition that tells them apart may be missing. Equal values may be shown once.

System: 695427-040-R-J1-PDC complex spheroid viability
Experiment: Anticancer human tumor 695427-040-R-J1-PDC patient-derived colon adenocarcinoma cell line growth inhibition [POLQ]
Conditions: for viability, T/C: stronger effect = lower value
Protocol: Multicellular complex tumor spheroid response to Polymerase (POL) inhibitors (novobiocin, ART-558, RP6685) in combination with a variety of drugs and investigational agents in selected tumor cell lines
The POL inhibitors (novobiocin, ART-558, and RP6685) were evaluated both individually and in combination with standard of care and investigational anticancer small molecules within a complex spheroid model of solid tumors. . Complex spheroids include a stromal component modeled by human endothelial cells (HUVEC) and fibroblasts modeled by human mesenchymal stem cells (MSCs). The concentration ranges selected for each drug and investigational agent were based upon clinically achievable concentrations if the clinical Cmax of the agent was known.
Compounds. The drugs and investigational agents: novobiocin (NSC847541), ART-558 (NSC835418), RP-6685 (NSC848927), peposertib (NSC802822), ceralasertib (NSC780249), elimusertib (NSC800525), camonsertib (NSC841442), AZD-1390 (NSC803789), olaparib (NSC753686), talazoparib (NSC767125), rucaparib (NSC756644), sotorasib (NSC818433), MRTX-1133 (NSC836407), SN-38 (NSC673596), topotecan (NSC609699), epotoside (NSC141540), doxorubicin (NSC123127), gemcitabine (NSC613327), 5-fluorouracil (NSC19893), paclitaxel (NSC125973), vemurafenib (NSC761431), MSA-2 (NSC828583), SN-011 (NSC837082), adavosertib (NSC754352), prexasertib (NSC758257), carboplatin (NSC241240) and oxaliplatin (NSC266046), were obtained from the National Cancer Institute (NCI) Developmental Therapeutics Program Chemical Repository (21). The FDA-approved anticancer drug set is available from the Developmental Therapeutics Program at https://dtp.cancer.gov/organization/dscb/obtaining/. […] The stock solutions were prepared in dimethyl sulfoxide (DMSO, Sigma-Aldrich, St. Louis, MO, cat. D2650), except for the platinum compounds which were prepared in saline (Quality Biological, Gaithersburg, MD, cat. 114-055-101), at 800-fold the tested concentration and stored at -70 degrees C prior to their use. All drugs and investigational agents were tested over a range starting from a high concentration at or near the clinical Cmax and decreasing in half-log increments. If the clinical Cmax for an agent had not been determined, the highest concentration tested was 10 microM, except for SN-38, which was tested at a high concentration of 1 microM.
Cell Culture. All cells were maintained in an incubator at 37 degrees C and 5% CO2 with 95% humidity. The PDC lines were cultured according to standard operating procedures established by the NCI PDMR (https://pdmr.cancer.gov). Table 3 of the manuscript, lists the cell lines along with the number of the three cell types plated to form the mct-spheroids and media for tumor cell growth. After thawing, all PDC lines, except 997537-175-T-J1-PDC and 415267-285-R-J2-PDC, were cultured in Matrigel-coated flasks prepared with a working solution of 1X Ham's F-12 nutrient mix, without supplementation (Thermo Fisher Scientific, cat. 11765054), 100 U/mL penicillin-streptomycin (Thermo Fisher Scientific, cat. 15140122), and 2.5% Matrigel (Corning Inc., Corning, NY, cat. 354248) for the first three passages. The two PDC lines 997537-175-T-J1-PDC and 415267-285-R-J2-PDC were cultured on uncoated flasks. The 857933-349-R-J2-PDC line was cultured in 6C/Colon 1B media containing advanced DMEM/F-12 (Thermo Fisher Scientific, cat. 12634028), 10 mM HEPES (Thermo Fisher Scientific, cat. 15630080), 1X GlutaMAX supplement (Thermo Fisher Scientific, cat. 35050061), 0.1 mg/mL primocin (InvivoGen, San Diego, CA, cat. ant-pm-2), 10% defined fetal bovine serum, heat inactivated (HyClone Laboratories Inc., Logan, UT, cat. SH30070.03HI), 50% L-WRN conditioned media (ATCC, cat. CRL-3276), 1.25 mM N-Acetyl-L-cysteine (Sigma-Aldrich, cat. A9165), 10 mM nicotinamide (Sigma-Aldrich, cat. N0636), 1X B-27 supplement (Thermo Fisher Scientific, cat. 17504044), 1X N-2 supplement (Thermo Fisher Scientific, cat. […]
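Further: spheroids exposed to compounds for seven days.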
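Wherever viability, T/C is given: 100% = DMSO vehicle control viability.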

## CCc1cc2c(N3CCc4c(cc(Cn5ccnc5)cc4-c4cn(C)nc4C(F)(F)F)C3=O)cc(C)nc2c(OC)n1 + Nc1ccc(C#CCN(C(=O)Cc2ncc(C(F)(F)F)cc2C(F)(F)F)c2ccc(F)cc2)nn1
Curve of first compound, second compound 0.0316 µM
  IC50: > 10 µM
Curve of first compound, second compound 0.1 µM
  IC50: > 10 µM
Curve of first compound, second compound 0.316 µM
  IC50: > 10 µM
Curve of first compound, second compound 1 µM
  IC50: > 10 µM
Curve of first compound, second compound 3.16 µM
  IC50: > 10 µM
Curve of first compound, second compound 10 µM
  IC50: > 10 µM
Second compound 0.0316 µM, first compound 0.0316 µM
  viability, T/C: 102%
Second compound 0.0316 µM, first compound 0.1 µM
  viability, T/C: 106%
Second compound 0.0316 µM, first compound 0.316 µM
  viability, T/C: 107%
Second compound 0.0316 µM, first compound 1 µM
  viability, T/C: 108%
Second compound 0.0316 µM, first compound 3.16 µM
  viability, T/C: 113%
Second compound 0.0316 µM, first compound 10 µM
  viability, T/C: 108%
Second compound 0.1 µM, first compound 0.0316 µM
  viability, T/C: 120%
Second compound 0.1 µM, first compound 0.1 µM
  viability, T/C: 103%
Second compound 0.1 µM, first compound 0.316 µM
  viability, T/C: 103%
Second compound 0.1 µM, first compound 1 µM
  viability, T/C: 101%
Second compound 0.1 µM, first compound 3.16 µM
  viability, T/C: 112%
Second compound 0.1 µM, first compound 10 µM
  viability, T/C: 102%
Second compound 0.316 µM, first compound 0.0316 µM
  viability, T/C: 102%
Second compound 0.316 µM, first compound 0.1 µM
  viability, T/C: 98.9%
Second compound 0.316 µM, first compound 0.316 µM
  viability, T/C: 99.9%
Second compound 0.316 µM, first compound 1 µM
  viability, T/C: 101%
Second compound 0.316 µM, first compound 3.16 µM
  viability, T/C: 113%
Second compound 0.316 µM, first compound 10 µM
  viability, T/C: 98.8%
Second compound 1 µM, first compound 0.0316 µM
  viability, T/C: 112%
Second compound 1 µM, first compound 0.1 µM
  viability, T/C: 95.8%
Second compound 1 µM, first compound 0.316 µM
  viability, T/C: 99.3%
Second compound 1 µM, first compound 1 µM
  viability, T/C: 105%
Second compound 1 µM, first compound 3.16 µM
  viability, T/C: 98.5%
Second compound 1 µM, first compound 10 µM
  viability, T/C: 98.3%
Second compound 3.16 µM, first compound 0.0316 µM
  viability, T/C: 109%
Second compound 3.16 µM, first compound 0.1 µM
  viability, T/C: 116%
Second compound 3.16 µM, first compound 0.316 µM
  viability, T/C: 88.3%
Second compound 3.16 µM, first compound 1 µM
  viability, T/C: 95.3%
Second compound 3.16 µM, first compound 3.16 µM
  viability, T/C: 103%
Second compound 3.16 µM, first compound 10 µM
  viability, T/C: 108%
Second compound 10 µM, first compound 0.0316 µM
  viability, T/C: 107%
Second compound 10 µM, first compound 0.1 µM
  viability, T/C: 94.6%
Second compound 10 µM, first compound 0.316 µM
  viability, T/C: 95.6%
Second compound 10 µM, first compound 1 µM
  viability, T/C: 91.8%
Second compound 10 µM, first compound 3.16 µM
  viability, T/C: 98.7%
Second compound 10 µM, first compound 10 µM
  viability, T/C: 97.9%

## Nc1ccn(C2OC(CO)C(O)C2(F)F)c(=O)n1 (stereo not drawn)
Compound 0.0316 µM
  viability, T/C: 90% and 87.3% (2×)
Compound 0.1 µM
  viability, T/C: 76.8% and 89.3% and 78.8%
Compound 0.316 µM
  viability, T/C: 70.9% and 83.7% and 72%
Compound 1 µM
  viability, T/C: 71.8% and 78.5% and 69%
Compound 3.16 µM
  viability, T/C: 64.6% and 81.7% and 60.8%
Compound 10 µM
  viability, T/C: 57.5% and 64.6% and 53%
Curve of compound
  IC50: > 10 µM

## CNCc1ccc(-c2[nH]c3cc(F)cc4c3c2CCNC4=O)cc1
Compound 0.0316 µM
  viability, T/C: 102% and 100% and 94.1%
Compound 0.1 µM
  viability, T/C: 96.6% and 99.5% and 98.4%
Compound 0.316 µM
  viability, T/C: 106% and 104% (2×)
Compound 1 µM
  viability, T/C: 104% and 102% and 105%
Compound 3.16 µM
  viability, T/C: 108% and 118% and 102%
Compound 10 µM
  viability, T/C: 102% and 111% and 103%
Curve of compound
  IC50: > 10 µM

## CC(C)n1c(=O)n(C)c2cnc3cc(F)c(-c4ccc(OCCCN5CCCCC5)nc4)cc3c21
Compound 0.0316 µM
  viability, T/C: 96.7% and 98.1% and 112%
Compound 0.1 µM
  viability, T/C: 104% and 109% and 101%
Compound 0.316 µM
  viability, T/C: 109% and 104% and 106%
Compound 1 µM
  viability, T/C: 109% (2×) and 124%
Compound 3.16 µM
  viability, T/C: 104% and 108% and 101%
Compound 10 µM
  viability, T/C: 73.4% and 83.2% and 79%
Curve of compound
  IC50: > 10 µM
